The results in this text go back to ChEMBL document CHEMBL1150977, “A quantitative analysis of kinase inhibitor selectivity” (Nat Biotechnol, 2008).

A value given as a limit tells only on which side of the number the result lay.

Assay [1] concerns the target Insulin receptor-related protein (Homo sapiens, UniProt P14616).
Assay [2] has as its target Ribosomal protein S6 kinase alpha-6 (Homo sapiens, UniProt Q9UK32).
Assay [3] has as its target T1, cGMP-dependent protein kinase 1 (Homo sapiens, UniProt Q13976).
T1 sequence (Q13976 whole entry): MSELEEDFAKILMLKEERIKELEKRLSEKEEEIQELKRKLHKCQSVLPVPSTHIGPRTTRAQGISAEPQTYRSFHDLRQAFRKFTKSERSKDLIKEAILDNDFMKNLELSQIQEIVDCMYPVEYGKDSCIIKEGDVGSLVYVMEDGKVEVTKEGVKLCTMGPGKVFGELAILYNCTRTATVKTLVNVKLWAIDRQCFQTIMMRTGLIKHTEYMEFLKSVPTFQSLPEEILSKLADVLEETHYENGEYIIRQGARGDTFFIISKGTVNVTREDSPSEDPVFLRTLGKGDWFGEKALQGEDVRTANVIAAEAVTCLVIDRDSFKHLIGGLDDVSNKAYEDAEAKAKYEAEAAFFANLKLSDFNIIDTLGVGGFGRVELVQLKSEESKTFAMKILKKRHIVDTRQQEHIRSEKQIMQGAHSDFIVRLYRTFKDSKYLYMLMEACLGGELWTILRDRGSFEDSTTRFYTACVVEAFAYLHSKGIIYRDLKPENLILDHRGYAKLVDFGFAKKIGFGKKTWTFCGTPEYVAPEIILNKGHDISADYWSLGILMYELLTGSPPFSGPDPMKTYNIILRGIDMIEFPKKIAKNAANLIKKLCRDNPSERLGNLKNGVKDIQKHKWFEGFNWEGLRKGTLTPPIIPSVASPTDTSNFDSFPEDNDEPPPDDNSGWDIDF

Assay [4] concerns the target Protein kinase C theta type (Homo sapiens, UniProt Q04759).
Assay [5] concerns the target Calcium/calmodulin-dependent protein kinase kinase 1 (Homo sapiens, UniProt Q8N5S9).
In assay [6] the target is Receptor-type tyrosine-protein kinase FLT3 (Homo sapiens, UniProt P36888, D835Y).
The target in assay [7] is Tyrosine-protein kinase Blk (Homo sapiens, UniProt P51451).
For assay [8], the target named is Serine/threonine-protein kinase SIK1 (Homo sapiens, UniProt P57059).
The target of assay [9] is Fibroblast growth factor receptor 3 (Homo sapiens, UniProt P22607).
The target of assay [10] is Dual specificity tyrosine-phosphorylation-regulated kinase 1B (Homo sapiens, UniProt Q9Y463).
Chain of Dual specificity tyrosine-phosphorylation-regulated kinase 1B (Q9Y463 whole entry): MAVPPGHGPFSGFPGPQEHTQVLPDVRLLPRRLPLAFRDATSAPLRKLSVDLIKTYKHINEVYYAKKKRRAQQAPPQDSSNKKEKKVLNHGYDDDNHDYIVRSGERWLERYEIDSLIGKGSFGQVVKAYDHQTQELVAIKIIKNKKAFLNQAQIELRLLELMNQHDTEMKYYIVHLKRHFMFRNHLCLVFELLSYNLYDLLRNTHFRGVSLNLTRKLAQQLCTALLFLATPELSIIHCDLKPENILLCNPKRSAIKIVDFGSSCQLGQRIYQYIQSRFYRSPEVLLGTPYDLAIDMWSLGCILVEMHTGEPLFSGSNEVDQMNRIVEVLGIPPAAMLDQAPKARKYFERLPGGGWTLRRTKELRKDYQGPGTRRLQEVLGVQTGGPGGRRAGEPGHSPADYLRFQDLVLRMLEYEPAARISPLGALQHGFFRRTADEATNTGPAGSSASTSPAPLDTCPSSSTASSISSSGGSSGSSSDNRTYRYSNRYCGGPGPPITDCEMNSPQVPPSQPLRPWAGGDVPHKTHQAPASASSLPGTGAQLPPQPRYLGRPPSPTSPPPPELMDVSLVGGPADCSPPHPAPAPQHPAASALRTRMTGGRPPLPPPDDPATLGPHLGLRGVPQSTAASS
In assay [11] the target is Tyrosine-protein kinase ABL1 (Homo sapiens, UniProt P00519, Q252H).
The target in assay [12] is Tyrosine-protein kinase ABL1 (Homo sapiens, UniProt P00519, E255K).
Assay [13] addresses T2, Serine/threonine-protein kinase D3 (Homo sapiens, UniProt O94806).
T2 sequence (O94806 whole entry): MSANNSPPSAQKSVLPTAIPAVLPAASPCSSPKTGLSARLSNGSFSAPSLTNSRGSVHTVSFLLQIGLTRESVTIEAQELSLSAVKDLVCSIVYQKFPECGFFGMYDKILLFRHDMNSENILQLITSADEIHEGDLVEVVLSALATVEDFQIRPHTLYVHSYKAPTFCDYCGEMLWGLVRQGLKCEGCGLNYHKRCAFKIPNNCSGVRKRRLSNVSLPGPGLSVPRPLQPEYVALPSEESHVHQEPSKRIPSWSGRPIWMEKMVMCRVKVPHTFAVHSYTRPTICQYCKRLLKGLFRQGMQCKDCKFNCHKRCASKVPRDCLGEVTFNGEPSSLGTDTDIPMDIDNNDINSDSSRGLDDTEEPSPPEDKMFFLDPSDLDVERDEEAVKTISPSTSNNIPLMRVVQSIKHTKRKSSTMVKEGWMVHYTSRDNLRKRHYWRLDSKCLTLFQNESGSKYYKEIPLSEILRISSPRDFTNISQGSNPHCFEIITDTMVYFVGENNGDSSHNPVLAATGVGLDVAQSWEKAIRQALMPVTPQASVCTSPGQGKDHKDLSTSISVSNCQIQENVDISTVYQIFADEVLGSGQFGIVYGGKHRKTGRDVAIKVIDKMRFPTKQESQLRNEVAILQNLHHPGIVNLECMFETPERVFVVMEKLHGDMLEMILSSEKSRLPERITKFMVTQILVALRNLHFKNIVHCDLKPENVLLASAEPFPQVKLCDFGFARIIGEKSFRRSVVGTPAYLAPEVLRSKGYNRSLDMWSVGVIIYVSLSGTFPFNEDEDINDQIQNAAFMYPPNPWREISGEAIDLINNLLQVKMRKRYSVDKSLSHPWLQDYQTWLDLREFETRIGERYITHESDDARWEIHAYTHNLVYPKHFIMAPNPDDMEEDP

Assay [14] concerns the target Cyclin-dependent kinase 8 (Homo sapiens, UniProt P49336).
Assay [15] has as its target Ribosomal protein S6 kinase alpha-3 (Homo sapiens, UniProt P51812).
The target in assay [16] is Platelet-derived growth factor receptor beta (Homo sapiens, UniProt P09619).
In the next assay the target is Activated CDC42 kinase 1 (Homo sapiens, UniProt Q07912).
The target of assay [17] is Cyclin-dependent kinase 19 (Homo sapiens, UniProt Q9BWU1).
Assay [18] has as its target Casein kinase I isoform epsilon (Homo sapiens, UniProt P49674).
In assay [19] the target is Tyrosine-protein kinase Fer (Homo sapiens, UniProt P16591).
In assay [20] the target is Dual specificity testis-specific protein kinase 1 (Homo sapiens, UniProt Q15569).
Chain of Dual specificity testis-specific protein kinase 1 (Q15569 whole entry): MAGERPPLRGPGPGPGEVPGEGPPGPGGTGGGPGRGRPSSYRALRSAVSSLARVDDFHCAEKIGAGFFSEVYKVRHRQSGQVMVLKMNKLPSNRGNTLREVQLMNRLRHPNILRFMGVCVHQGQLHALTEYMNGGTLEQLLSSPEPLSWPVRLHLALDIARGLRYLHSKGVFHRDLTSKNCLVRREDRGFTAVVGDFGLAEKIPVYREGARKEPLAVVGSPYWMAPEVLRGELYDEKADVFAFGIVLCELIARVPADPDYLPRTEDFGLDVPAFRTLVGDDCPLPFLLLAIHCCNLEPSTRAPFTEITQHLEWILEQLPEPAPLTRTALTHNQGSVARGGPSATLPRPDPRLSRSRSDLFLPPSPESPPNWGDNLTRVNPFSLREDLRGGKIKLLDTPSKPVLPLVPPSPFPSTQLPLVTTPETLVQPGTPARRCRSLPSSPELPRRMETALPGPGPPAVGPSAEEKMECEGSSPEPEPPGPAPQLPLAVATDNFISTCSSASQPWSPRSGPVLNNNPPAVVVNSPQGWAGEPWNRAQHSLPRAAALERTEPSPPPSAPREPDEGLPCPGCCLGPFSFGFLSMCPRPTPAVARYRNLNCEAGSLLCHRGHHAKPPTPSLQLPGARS
The target in assay [21] is Tyrosine-protein kinase ABL2 (Homo sapiens, UniProt P42684).
The next assay has as its target LIM domain kinase 1 (Homo sapiens, UniProt P53667).
Assay [22] has as its target Proto-oncogene tyrosine-protein kinase ROS (Homo sapiens, UniProt P08922).
The target in assay [23] is Protein-tyrosine kinase 2-beta (Homo sapiens, UniProt Q14289).
Chain of Protein-tyrosine kinase 2-beta (Q14289 whole entry): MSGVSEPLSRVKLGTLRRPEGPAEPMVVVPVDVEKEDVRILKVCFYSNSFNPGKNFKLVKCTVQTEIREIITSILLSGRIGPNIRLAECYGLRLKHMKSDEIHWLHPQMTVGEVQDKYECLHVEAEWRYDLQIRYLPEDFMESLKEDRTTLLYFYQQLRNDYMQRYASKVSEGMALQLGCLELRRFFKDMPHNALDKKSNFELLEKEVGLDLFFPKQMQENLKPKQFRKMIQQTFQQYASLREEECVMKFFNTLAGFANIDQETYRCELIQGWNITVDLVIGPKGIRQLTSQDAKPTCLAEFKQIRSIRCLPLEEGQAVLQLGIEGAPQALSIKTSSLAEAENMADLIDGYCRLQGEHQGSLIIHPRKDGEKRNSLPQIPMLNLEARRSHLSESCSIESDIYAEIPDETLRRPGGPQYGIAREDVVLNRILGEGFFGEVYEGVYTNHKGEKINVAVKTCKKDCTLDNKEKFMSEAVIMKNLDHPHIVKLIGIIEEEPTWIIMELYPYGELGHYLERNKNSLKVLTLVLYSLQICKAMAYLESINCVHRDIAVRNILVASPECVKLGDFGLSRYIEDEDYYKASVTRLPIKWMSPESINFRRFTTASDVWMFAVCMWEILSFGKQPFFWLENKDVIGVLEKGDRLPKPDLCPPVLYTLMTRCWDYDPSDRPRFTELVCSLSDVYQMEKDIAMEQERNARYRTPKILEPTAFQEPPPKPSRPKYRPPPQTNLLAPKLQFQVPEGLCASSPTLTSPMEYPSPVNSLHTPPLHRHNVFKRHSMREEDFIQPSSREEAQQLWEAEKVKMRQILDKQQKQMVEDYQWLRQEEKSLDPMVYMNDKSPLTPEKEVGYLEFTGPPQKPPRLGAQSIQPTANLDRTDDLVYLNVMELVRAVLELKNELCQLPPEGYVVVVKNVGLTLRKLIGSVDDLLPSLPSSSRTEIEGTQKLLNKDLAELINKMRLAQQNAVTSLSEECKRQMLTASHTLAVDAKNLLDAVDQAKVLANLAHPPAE

Chain of Cyclin-dependent kinase 8 (P49336 whole entry): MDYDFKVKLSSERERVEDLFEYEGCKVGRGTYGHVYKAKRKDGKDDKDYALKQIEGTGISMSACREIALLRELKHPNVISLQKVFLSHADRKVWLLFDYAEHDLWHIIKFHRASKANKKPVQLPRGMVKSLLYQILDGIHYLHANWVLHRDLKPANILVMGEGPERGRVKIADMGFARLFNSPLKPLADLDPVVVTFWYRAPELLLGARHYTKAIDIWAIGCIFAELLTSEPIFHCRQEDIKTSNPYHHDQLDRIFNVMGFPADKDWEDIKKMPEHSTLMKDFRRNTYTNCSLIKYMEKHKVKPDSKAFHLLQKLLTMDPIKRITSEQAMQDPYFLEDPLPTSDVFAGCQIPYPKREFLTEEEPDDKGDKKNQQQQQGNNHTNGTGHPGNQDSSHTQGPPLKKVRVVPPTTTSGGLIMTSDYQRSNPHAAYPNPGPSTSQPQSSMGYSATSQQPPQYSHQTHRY
Chain of Calcium/calmodulin-dependent protein kinase kinase 1 (Q8N5S9 whole entry): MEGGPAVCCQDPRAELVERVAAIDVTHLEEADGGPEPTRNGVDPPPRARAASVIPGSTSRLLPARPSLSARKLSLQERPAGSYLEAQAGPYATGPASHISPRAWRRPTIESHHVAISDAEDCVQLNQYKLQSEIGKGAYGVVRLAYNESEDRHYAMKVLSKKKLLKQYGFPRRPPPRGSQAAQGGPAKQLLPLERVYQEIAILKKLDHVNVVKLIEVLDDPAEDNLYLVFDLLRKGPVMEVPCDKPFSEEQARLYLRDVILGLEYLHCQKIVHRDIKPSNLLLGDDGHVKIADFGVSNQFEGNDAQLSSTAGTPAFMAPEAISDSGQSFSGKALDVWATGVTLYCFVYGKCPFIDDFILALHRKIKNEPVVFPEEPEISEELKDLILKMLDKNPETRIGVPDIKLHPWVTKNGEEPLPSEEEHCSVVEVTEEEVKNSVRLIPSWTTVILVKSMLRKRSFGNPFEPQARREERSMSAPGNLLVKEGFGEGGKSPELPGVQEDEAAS
Chain of Ribosomal protein S6 kinase alpha-3 (P51812 whole entry): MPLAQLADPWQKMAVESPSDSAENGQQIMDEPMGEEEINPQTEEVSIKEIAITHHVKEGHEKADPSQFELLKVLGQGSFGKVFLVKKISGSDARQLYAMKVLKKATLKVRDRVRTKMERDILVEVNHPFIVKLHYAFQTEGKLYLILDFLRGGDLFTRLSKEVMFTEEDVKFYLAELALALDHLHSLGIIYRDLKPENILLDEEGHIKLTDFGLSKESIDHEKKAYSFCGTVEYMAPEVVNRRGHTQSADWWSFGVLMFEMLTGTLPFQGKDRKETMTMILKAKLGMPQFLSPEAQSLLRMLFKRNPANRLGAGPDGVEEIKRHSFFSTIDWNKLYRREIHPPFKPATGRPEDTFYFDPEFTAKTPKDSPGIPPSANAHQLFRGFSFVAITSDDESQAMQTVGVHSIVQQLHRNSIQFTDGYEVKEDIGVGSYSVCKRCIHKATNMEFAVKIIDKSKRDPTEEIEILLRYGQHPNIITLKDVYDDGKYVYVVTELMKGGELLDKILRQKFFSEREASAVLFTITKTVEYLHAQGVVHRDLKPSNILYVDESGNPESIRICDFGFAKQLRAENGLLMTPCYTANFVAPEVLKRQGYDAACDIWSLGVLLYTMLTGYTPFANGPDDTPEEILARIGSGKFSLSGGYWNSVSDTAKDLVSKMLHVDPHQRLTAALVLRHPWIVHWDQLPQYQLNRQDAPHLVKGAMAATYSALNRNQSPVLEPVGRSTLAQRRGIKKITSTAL
Chain of LIM domain kinase 1 (P53667 whole entry, the tested form may be a part): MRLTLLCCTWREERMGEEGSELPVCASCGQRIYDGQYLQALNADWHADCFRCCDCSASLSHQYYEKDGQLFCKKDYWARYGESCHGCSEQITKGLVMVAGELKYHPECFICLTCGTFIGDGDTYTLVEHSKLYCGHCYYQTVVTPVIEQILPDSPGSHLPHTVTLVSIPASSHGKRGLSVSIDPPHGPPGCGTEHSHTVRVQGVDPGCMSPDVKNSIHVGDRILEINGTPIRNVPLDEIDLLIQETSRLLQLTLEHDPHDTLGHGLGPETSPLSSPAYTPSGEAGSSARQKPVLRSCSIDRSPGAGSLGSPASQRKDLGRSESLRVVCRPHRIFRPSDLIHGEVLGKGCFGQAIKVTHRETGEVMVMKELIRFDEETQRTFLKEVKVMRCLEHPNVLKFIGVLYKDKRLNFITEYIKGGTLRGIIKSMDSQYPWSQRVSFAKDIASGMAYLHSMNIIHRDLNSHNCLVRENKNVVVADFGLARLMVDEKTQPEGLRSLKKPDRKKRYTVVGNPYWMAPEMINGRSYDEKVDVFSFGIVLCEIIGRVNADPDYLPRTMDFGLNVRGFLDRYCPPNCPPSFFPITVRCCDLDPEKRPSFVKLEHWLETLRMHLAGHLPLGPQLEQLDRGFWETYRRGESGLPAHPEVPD
Chain of Casein kinase I isoform epsilon (P49674 whole entry, canonical isoform): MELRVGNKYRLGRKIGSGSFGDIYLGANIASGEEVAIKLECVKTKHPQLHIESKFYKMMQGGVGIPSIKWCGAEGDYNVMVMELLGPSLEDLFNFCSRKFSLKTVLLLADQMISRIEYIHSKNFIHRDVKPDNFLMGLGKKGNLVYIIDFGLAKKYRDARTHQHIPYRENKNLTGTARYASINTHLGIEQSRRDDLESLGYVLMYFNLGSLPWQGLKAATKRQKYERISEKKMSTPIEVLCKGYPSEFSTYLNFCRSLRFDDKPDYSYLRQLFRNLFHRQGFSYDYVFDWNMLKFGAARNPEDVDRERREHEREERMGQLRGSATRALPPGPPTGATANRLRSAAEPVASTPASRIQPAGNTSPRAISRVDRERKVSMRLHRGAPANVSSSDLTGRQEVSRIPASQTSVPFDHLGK

The Kd is the equilibrium constant for the complex coming apart. For `Oc1ccc(-c2nc(-c3ccncc3)c(-c3ccc(F)cc3)[nH]2)cc1` [SB-202190], the Kd in [1], in assay [2], in [3], in [4], in assay [5] and in assay [6] was > 10 µM throughout. In addition, the Kd in assay [7], in [8], in assay [9], in [10], in assay [11] and in [12] was > 10 µM each time. In addition, the Kd (in assay [13]; in [14]; in assay [15]; in assay [16]; on Activated CDC42 kinase 1; in assay [17]) was > 10 µM throughout. Further, the Kd in assay [18] was 170 nM; in [19], > 10 µM; in [20] it was > 10 µM; in [21] it was > 10 µM; on LIM domain kinase 1 it was > 10 µM; in assay [22], > 10 µM. The Kd in [23] is > 10 µM.

With `CCN1CCN(Cc2ccc(NC(=O)Nc3ccc(Oc4cc(NC)ncn4)cc3)cc2C(F)(F)F)CC1` [AST-487], the Kd (in assay [9]; at LIM domain kinase 1) was > 10 µM in each case.

On to `COCC(=O)NC/C=C/c1ccc2ncnc(Nc3ccc(Oc4ccc(C)nc4)c(C)c3)c2c1` [CP-724714], for which the dissociation constant (Kd) in assay [1], in assay [2], in [3], in assay [4], in assay [5] and in [6] was > 10 µM in each case. The equilibrium dissociation constant (Kd) in assay [7], in assay [8], in assay [9], in assay [10], in [11] and in assay [12] was > 10 µM in each case. For the same compound, the Kd in [13] is > 10 µM; in assay [15] it was > 10 µM; in assay [16], > 10 µM; at Activated CDC42 kinase 1, > 10 µM; in assay [18], > 10000 nM; in [19] it was > 10 µM. Besides, the dissociation constant Kd (in assay [20]; in assay [21]; on LIM domain kinase 1; in assay [22]; in [23]) was > 10 µM throughout.

Consider `Nc1nc(Nc2ccc(S(N)(=O)=O)cc2)nn1C(=O)c1c(F)cccc1F` [JNJ-7706621], for which the Kd in [1] was > 10 µM; in assay [3], > 10 µM; in assay [7], > 10 µM; in [10] it was > 10 µM; in [17], > 10 µM; in assay [18], 3600 nM. Besides, the dissociation constant Kd in assay [19] is > 10 µM; in assay [20] it was 3.1 µM; in [21] it was > 10 µM; in assay [22], > 10 µM; in assay [23], > 10 µM.

As for `NC(=O)c1ccc(-c2nc(-c3ccc4c(c3)OCO4)c(-c3ccccn3)[nH]2)cc1` [SB-431542], the Kd in [1], in assay [3], in assay [4], in [5], in assay [7] and in assay [8] was > 10 µM each time. Further, the Kd in [9], in assay [10], in assay [11], in assay [12], in assay [14] and in assay [15] was > 10 µM throughout. The dissociation constant Kd (in assay [16]; on Activated CDC42 kinase 1; in [17]; in assay [19]; in assay [21]; at LIM domain kinase 1) was > 10 µM each time. In addition, the equilibrium dissociation constant (Kd) in assay [22] and in [23] was > 10 µM throughout.

`CCOc1cc2ncc(C#N)c(Nc3ccc(F)c(Cl)c3)c2cc1NC(=O)/C=C/CN(C)C` [PELITINIB]: the Kd in assay [1] was > 10 µM; in [2] it was > 10 µM; in assay [3], > 10 µM; in assay [4] it was > 10 µM; in [5], 5.1 µM; in [6] it was 2.8 µM. The dissociation constant Kd was 0.078 µM in [7]; > 10 µM in [8]; > 10 µM in assay [9]; > 10 µM in [13]; > 10 µM in assay [14]; > 10 µM in assay [15]. The Kd in assay [16] is > 10 µM; on Activated CDC42 kinase 1, 5.2 µM; in assay [17], > 10 µM; in [18] it was 100 nM; in [19] it was 8.8 µM; in assay [20], > 10 µM. Besides, the Kd (on LIM domain kinase 1; in assay [22]; in assay [23]) was > 10 µM each time.
